Source: patent US20060100140A1, “Combination of a) n-{5-[4-(4-methyl-piperazino-methyl)-benzoylamido]2-methylphenyl}-4- (3-pyridyl)-2-pyrimidine-amine and b) a histone deacetylase inhibitor for the treatment of leukemia” (priority 2002, published 2006)

Legend:
LAMA 84 cells = assay: Annexin V/PI flow cytometry of cell death; type: cell-based, human; conditions: 200 nM Compound I ± 1.0 μM SAHA for 24 hr
Method: For these studies, the percentage of apoptotic cells is determined by evaluating ≧500 cells/condition in triplicate. To confirm the results of morphological analysis, Annexin V/PI staining is used. Annexin V/PI (BD PharMingen, San Diego, Calif.) analysis of cell death is carried out as per the manufacturer's instructions. In studies involving TNF and TNF soluble receptor, both compound are combined and maintained at room temperature 20 min prior to use. For these experiments 1-2×10^5 cells per condition are harvested. Analysis is carried out using a Becton-Dickinson FACScan cytofluorometer (Mansfield, Mass.). To further confirm the morphology results, TUNEL staining is used. For TUNEL staining, cytocentrifuge preparations are obtained and fixed with 4% formaldehyde. The slides are treated with acetic acid/ethanol (1:2), stained with terminal transferase reaction mixture containing 1× terminal transferase reaction buffer (0.25 units/μl terminal transferase, 2.5 mM CoCl2, and 2 pmol fluorescein-12-dUTM; Boehringer Mannheim, Indianapolis, Ind.), and visualized using fluorescence microscopy.

[1] = test system: K562 cells transfected with GFP/constitutively active MEK1/2 fusion cDNA; assay: Apoptosis in sorted transiently transfected cells; type: cell-based, human; conditions: Table 8; GFP/MEK; 2.0 μM SAHA ± 250 nM Compound I for 24 hr
Method: Assessment of Apoptosis: After drug exposures, cytocentrifuge preparations are stained with Wright-Giemsa and viewed by light microscopy to evaluate the extent of apoptosis (i.e., cell shrinkage, nuclear condensation, formation of apoptotic bodies, etc.) as described previously (Yu et al., Nat. Rev. Cancer 1:294-202). For these studies, the percentage of apoptotic cells is determined by evaluating ≧500 cells/condition in triplicate. To confirm the results of morphological analysis, Annexin V/PI staining is used. Annexin V/PI (BD PharMingen, San Diego, Calif.) analysis of cell death is carried out as per the manufacturer's instructions. […] The slides are treated with acetic acid/ethanol (1:2), stained with terminal transferase reaction mixture containing 1× terminal transferase reaction buffer (0.25 units/μl terminal transferase, 2.5 mM CoCl2, and 2 pmol fluorescein-12-dUTM; Boehringer Mannheim, Indianapolis, Ind.), and visualized using fluorescence microscopy.
Transient transfections: Plasmids encoding enhanced green fluorescence protein under the transciptional control of the human cytomegalovirus (CMV) immediate-early promoter (pEGFP-C2), and HA-tagged activated MEK1 (S218D/S222D in pUSEEamp) are obtained from Clontech Laboratories (Palo Alto, Calif.) and Upstate Biotechnology (Lake Placid, N.Y.), respectively.

O=C(CCCCCCC(=O)Nc1ccccc1)NO [SAHA, suberoylanilide hydroxamic acid]
% Annexin V/PI (LAMA 84 cells): 15.2 ± 2.4%
apoptosis [1]: 19.8 ± 2.1%
